First: CC(=C1SC(=O)NC1=O)c1ccc(OCCOc2c(-c3ccc(F)c(F)c3)n(C)c3ccccc3c2=O)cc1
Second: Cc1ccc(-c2[nH]c(-c3ccc4ccccc4c3)nc2C(=O)Nc2nccs2)cc1
The melting point of the first is lower: 248 to 250 °C for the first, > 250 °C for the second.

First: Cc1cc(F)c2ncc(C(=O)NNc3ccc(Cl)cc3)c(O)c2c1
Second: CC(=O)Nc1ccc2ncnc(Nc3cccc(Cl)c3)c2c1
The melting point of the first is lower: 256 to 258 °C for the first, 260 to 262 °C for the second.

First: CC(=O)OC1CSC(Oc2cncc(-c3cncnc3)c2)C(OC(C)=O)C1OC(C)=O (configuration not stated)
Second: CC(C)(C)OC(=O)c1ncn2c1cc(C(=O)N1CCNCC1)c1cc(Cl)ccc12
The melting point of the first is lower: 213 to 217 °C for the first, 239 to 240 °C for the second.

Compared with CC(O)c1cc(Br)ccc1OCc1ccccc1 (configuration not stated), COC(=O)C(Oc1cc(OCc2ccccc2)ccc1C#N)c1ccccc1C (racemic) is higher in melting point: 76.7 °C for the first, 134 to 136 °C for the second.

First: CCC(CC)(CC)C(=O)NC(C)(C)CO
Second: CCNC(=O)[C@@H]1CCCN1C(=O)[C@H](C)NC(=O)OCC
The melting point of the first is lower: 57 to 58 °C for the first, 126 to 128 °C for the second.

Compared with O=C(CCc1cccc2[nH]ccc12)c1ccccc1O, O=C(O)Cc1cccc(C(=O)c2ccccc2)c1 is lower in melting point: 143 °C for the first, 101 to 103 °C for the second.

First: CC1(C(=O)O)CCc2onc(-c3ccc(Cl)cc3)c2CC1 (configuration not stated)
Second: CC(C)N1CCc2ccc(C(=O)CCC(=O)N3CCC(c4ccc(Cl)cc4)CC3)cc2CC1
The melting point of the first is higher: 163 °C for the first, 139 to 140 °C for the second.

First: C#CCC(CC#C)NC(=O)C(F)(F)F
Second: O=C(O)c1sc(Cl)nc1C(F)(F)F
The melting point of the first is lower: 55 to 57 °C for the first, 131 to 132 °C for the second.

COc1cccc(Oc2cccc3c2C2(COc4cc5c(cc42)OCCO5)C(=O)N3C)c1 (configuration not stated) and COc1ccc2c(c1)Sc1cc(OC)ccc1N2C cannot be ordered by melting point: 166 to 168 °C for the first, 166 to 167 °C for the second.

Compared with CCCn1c(-c2ccc(-n3ccnc3)cc2)cnc1[C@H](Cc1ccccn1)N(C=O)c1cc2cc(F)ccc2o1, O=C(O)c1c(CN2CCC(c3ccccc3)(c3ccccc3)CC2)ncn1Cc1ccc(Cl)cc1 is higher in melting point: 77 to 81 °C for the first, 135 to 136 °C for the second.

First: N#CCc1cnc(Cl)c(Cl)c1
Second: OCCC1(c2ccc(Cl)c(Cl)c2)CNCCO1 (configuration not stated)
The melting point of the first is lower: 72 to 75 °C for the first, 90 to 91 °C for the second.

Compared with CC(O)CN1CCCC(c2cccs2)=N1 (configuration not stated), COc1ccc(-c2nc3n(c2-c2cccnc2)CCC3)cc1 is higher in melting point: 74 to 77 °C for the first, 164 to 165 °C for the second.

First: Cc1nc2ccccn2c(=O)c1CCN1CCC2C(C1)c1ccccc1N2Cc1ccccc1 (configuration not stated)
Second: Cc1nc2ccccn2c(=O)c1CCN1CCC(C(=O)c2ccc(F)cc2)CC1
The melting point of the first is higher: 145 °C for the first, 139 °C for the second.

First: ON=Cc1ccncc1
Second: COC(=O)C=Cc1ccc(O)cc1
The melting point of the first is higher: 180 to 182 °C for the first, 139 to 140 °C for the second.

Compared with O=C(N[C@@H](Cc1ccccc1)C(=O)O)OCC1c2ccccc2Oc2ccccc21, Cc1nn(-c2ccccn2)c2ncc(C(=O)NCc3ccccc3)c(O)c12 is higher in melting point: 143 to 145 °C for the first, > 300 °C for the second.

First: COc1ccccc1COc1ccc2c(c1)C=C(C(=O)O)CCS2(=O)=O
Second: COc1cccc2c1C(=O)c1c(OC)cc(Cc3ccccc3C(O)=S)cc1C2=O
The melting point of the first is lower: 168 to 171 °C for the first, 235 to 237 °C for the second.

Compared with COC(=O)CN(NC(N)=O)c1ccc(OC)c(C)c1, COC(=O)c1cc(C(C)(C)C(=O)OC)ccc1N is lower in melting point: 174 to 176 °C for the first, 58 to 60 °C for the second.

First: CCOc1ccc(Nc2ncc3cc(-c4c(Cl)cccc4Cl)c(=O)n(CC)c3n2)cc1
Second: CCOC(=O)c1cnc(O)nc1NCc1ccc(OC)c(Cl)c1
The melting point of the first is higher: 192 to 194 °C for the first, 117 to 122 °C for the second.

Compared with Cc1ccc(N2C(=O)C3=C(CCCC3)C2=O)c2c1OC(C)C2 (configuration not stated), CCOC(=O)c1ccc(C(=O)Nc2ccc3c(c2)CCC(C)(C)C(=O)N3C)cc1 is higher in melting point: 158 to 160 °C for the first, 183 to 184 °C for the second.

Compared with CCOC(=O)COc1cc(O)c2c(=O)cc(-c3ccc(OC)c(OCC(=O)N4CCN(Cc5ccc(OC)c(OC)c5OC)CC4)c3)oc2c1, COCOc1cc(OC)c(OC)cc1-c1c(C(=O)OC)[nH]c(C(=O)OC)c1-c1ccc(OC)c(OC)c1 is higher in melting point: 105 to 106 °C for the first, 162 to 163 °C for the second.

First: CN(C)CC=CC(=O)Nc1cc2c(Nc3cc(Cl)c(Cl)cc3F)ncnc2cc1OCCOCCOCCOCCF
Second: CCNC(=S)NS(=O)(=O)c1cc2c(cc1OC)OCCC2CNC(=O)c1cc(Cl)ccc1OC (configuration not stated)
The melting point of the first is lower: 119 to 120 °C for the first, 196 to 197 °C for the second.

First: Nc1nc2c(ncn2COCCOC(=O)CCC(=O)O)c(=O)[nH]1
Second: CCOC(=O)CCc1cn(-c2ccc(C(F)(F)F)cc2)nc1OCC
The melting point of the first is higher: 203 to 207 °C for the first, 47 to 48 °C for the second.

First: CNc1nnc(S[Si](C)(C)C)s1
Second: Oc1ccc(-c2nnc(Nc3ccc(Br)c(Cl)c3)s2)cc1O
The melting point of the first is lower: 80 to 82 °C for the first, 220 °C for the second.

Compared with O=C(Nc1ccc(Sc2ccncc2)cc1)c1ccc([N+](=O)[O-])cc1, CC(C)c1ccc(NC(=O)NCCc2ccccn2)cc1 is lower in melting point: 295 to 298 °C for the first, 72 to 73 °C for the second.

First: Cc1cc(CCC(=O)OC(C)(C)C)nc(-c2nc(=O)c3ccccc3s2)c1
Second: CN(CCOc1cccc2cc(S(=O)(=O)c3ccccc3)n(C(=O)OC(C)(C)C)c12)C(=O)OC(C)(C)C
The melting point of the first is higher: 168 to 169 °C for the first, 118 to 120 °C for the second.

First: Cc1ncc(CSC(=O)c2cccc(C(=O)SCc3cnc(C)c(O)c3CO)c2)c(CO)c1O
Second: COc1cc(C(=O)O)ccc1Cn1ccc2ccc(CC(=O)NCC3CCCC3)cc21
The melting point of the first is lower: 185 to 187 °C for the first, 188 to 189 °C for the second.

First: O=C(Nc1cccnn1)N1CCN(c2nccc(-c3ccc(F)cc3)n2)CC1
Second: CCN(CC)C(=O)C(C)(C)Oc1ccc(-c2ccc(N3CCCCC3)cc2)cc1
The melting point of the first is higher: 168 to 169 °C for the first, 100 to 102 °C for the second.

Compared with CC(C)OP(=O)(OC(C)C)c1nc(N)nc(P(=O)(OC(C)C)OC(C)C)n1, CC(C)(C)CC(C)(C)n1scc(Br)c1=O is higher in melting point: 123 to 124 °C for the first, 133 to 142 °C for the second.

Compared with COC(=O)c1cc(Br)c(O)c(O)c1Cl, COc1ccc(C(=O)NN=C(N)N)c(F)c1 is higher in melting point: 103 °C for the first, 220 °C for the second.

Compared with Oc1ccc2cc(-c3nc4ccc(O)cc4o3)ccc2c1, C=CCN1C(=S)N(c2cccc(Oc3ccccc3)c2)C(=O)C1C (configuration not stated) is lower in melting point: 288 to 290 °C for the first, 88 °C for the second.

First: CCC(=CC(CNC(=O)c1cccnc1Cl)=NO)C(C)[N+](=O)[O-] (configuration not stated)
Second: COC(=O)C1=C(C)NC(C)=C(C(=O)OCCCC#N)C1c1ccccc1[N+](=O)[O-] (configuration not stated)
The melting point of the first is higher: 131 to 136 °C for the first, 48 to 51 °C for the second.

First: CC(O)c1ccc(CCNS(=O)(=O)c2ccc(Br)cc2)cc1 (configuration not stated)
Second: CCNS(=O)(=O)c1ccc(C(O)c2ccc3c(c2)C(C)(C)CCC3(C)C)cc1 (configuration not stated)
The melting point of the first is lower: 125 to 127 °C for the first, 175 °C for the second.

Going from CCOc1ccc(CCNC(=O)/C=C/c2cccs2)cc1S(N)(=O)=O to CSc1nn2c(N)cc(Cl)nc2c1S(=O)(=O)c1ccccc1, the melting point rises from 55 °C to > 230 °C.

First: CCCc1nnc2c(N(CC)CC)nc3ccccc3n12
Second: C/C(NCCCc1ccccc1)=C(\C#N)C(N)=S
The melting point of the first is lower: 92 to 94 °C for the first, 125 to 126 °C for the second.

First: COC1=CCC2=C(CCC3C2CCC2(C)C3CCC2N(C)CCCN(C)C)C1 (configuration not stated)
Second: COc1c(CN2CCC(=O)C(C(c3ccccc3)c3ccccc3)C2)cc(C(C)(C)C)cc1C(C)(C)C (configuration not stated)
The melting point of the first is lower: 78 to 80 °C for the first, 136 to 138 °C for the second.

First: O=c1[nH]c2cc(Cl)cc(Cl)c2c(=O)n1-c1ccccc1
Second: CC(c1ccnnc1)C(O)(Cn1cncn1)c1ccc(Cl)cc1Cl (configuration not stated)
The melting point of the first is higher: 314 to 319 °C for the first, 174 to 177 °C for the second.

Reference: a melting point compilation (Tetko et al.; mined from patent text by program, amines drawn as free bases though some values may be those of a salt)
